# Test results published in PubChem BioAssay (NCI).
#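 Results reflect a 48-hour exposure of cells in 96-well plates to compound at five concentrations. GI50 marks 50% less growth. TGI denotes the concentration required for complete inhibition of growth.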
# Assays:
# Test in all cases: growth of human tumour cells (NCI), 48 h
# [1] = system: A498 renal
# [2] = system: A549 NSCLC
# [3] = system: ACHN renal
# [4] = system: BT-549 breast
# [5] = system: CAKI-1 renal
# [6] = system: COLO 205 colon
# [7] = system: DU-145 prostate
# [8] = system: EKVX NSCLC
# [9] = system: HCC-2998 colon
# [10] = system: HCT-116 colon
# [11] = system: HCT-15 colon
# [12] = system: HL-60(TB) leukemia
# [13] = system: HOP-62 NSCLC
# [14] = system: HOP-92 NSCLC
# [15] = system: HS 578T breast
# [16] = system: HT29 colon
# [17] = system: IGROV1 ovarian
# [18] = system: K-562 leukemia
# [19] = system: KM12 colon
# [20] = system: LOX IMVI melanoma
# [21] = system: M14 melanoma
# [22] = system: MALME-3M melanoma
# [23] = system: MDA-MB-231 breast
# [24] = system: MDA-MB-435
# [25] = system: MOLT-4 leukemia
# [26] = system: NCI-H226 lung
# [27] = system: NCI-H23 lung
# [28] = system: NCI-H460 lung
# [29] = system: NCI-H522 lung
# [30] = system: NCI/ADR-RES ovarian
# [31] = system: OVCAR-3 ovarian
# [32] = system: OVCAR-4 ovarian
# [33] = system: OVCAR-5 ovarian
# [34] = system: OVCAR-8 ovarian
# [35] = system: PC-3 prostate
# [36] = system: RPMI-8226 leukemia
# [37] = system: RXF 393 renal
# [38] = system: SF-268 CNS
# [39] = system: SF-295 CNS
# [40] = system: SF-539 CNS
# [41] = system: SK-MEL-2 melanoma
# [42] = system: SK-MEL-28 melanoma
# [43] = system: SK-MEL-5 melanoma
# [44] = system: SK-OV-3 ovarian
# [45] = system: SN12C renal
# [46] = system: SNB-19 CNS
# [47] = system: SNB-75 CNS
# [48] = system: SR leukemia
# [49] = system: SW-620 colon
# [50] = system: T-47D breast
# [51] = system: TK-10 renal
# [52] = system: U251 CNS
# [53] = system: UACC-257 melanoma
# [54] = system: UACC-62 melanoma
# [55] = system: 786-0 renal
# [56] = system: CCRF-CEM leukemia
# [57] = system: UO-31 renal
# [58] = system: MCF7 breast
smiles,measurement,setting,value
O=C(Nc1ccc(Cl)cc1)Nc1ccc(Oc2nncc3ccccc23)cc1,GI50,[1],1500 nM
same,TGI,[1],3060 nM
same,GI50,[2],2810 nM
same,TGI,[2],11500 nM
same,GI50,[3],1050 nM
same,TGI,[3],2330 nM
same,GI50,[4],2080 nM
same,TGI,[4],7430 nM
same,GI50,[5],2720 nM
same,TGI,[5],8700 nM
same,GI50,[6],1180 nM
same,TGI,[6],2920 nM
same,GI50,[7],736 nM
same,TGI,[7],2080 nM
same,GI50,[8],1610 nM
same,TGI,[8],4500 nM
same,GI50,[9],1840 nM
same,TGI,[9],3480 nM
same,GI50,[10],326 nM
same,TGI,[10],1200 nM
same,GI50,[11],961 nM
same,TGI,[11],3080 nM
same,GI50,[12],1080 nM
same,TGI,[12],13400 nM
same,GI50,[13],1090 nM
same,TGI,[13],4320 nM
same,GI50,[14],1640 nM
same,TGI,[14],4380 nM
same,GI50,[15],696 nM
same,TGI,[15],47000 nM
same,GI50,[16],465 nM
same,TGI,[16],2390 nM
same,GI50,[17],1160 nM
same,TGI,[17],5000 nM
same,GI50,[18],376 nM
same,TGI,[18],10900 nM
same,GI50,[19],888 nM
same,TGI,[19],2650 nM
same,GI50,[20],166 nM
same,TGI,[20],455 nM
same,GI50,[21],1120 nM
same,TGI,[21],3160 nM
same,GI50,[22],448 nM
same,TGI,[22],2310 nM
same,GI50,[23],399 nM
same,TGI,[23],3680 nM
same,GI50,[24],290 nM
same,TGI,[24],1070 nM
same,GI50,[25],376 nM
same,TGI,[25],> 100000 nM
same,GI50,[26],623 nM
same,TGI,[26],5420 nM
same,GI50,[27],751 nM
same,TGI,[27],2870 nM
same,GI50,[28],2790 nM
same,TGI,[28],8320 nM
same,GI50,[29],193 nM
same,TGI,[29],419 nM
same,GI50,[30],2630 nM
same,TGI,[30],> 100000 nM
same,GI50,[31],354 nM
same,TGI,[31],1150 nM
same,GI50,[32],753 nM
same,TGI,[32],3490 nM
same,GI50,[33],1890 nM
same,TGI,[33],4470 nM
same,GI50,[34],1100 nM
same,TGI,[34],13600 nM
same,GI50,[35],1640 nM
same,TGI,[35],6080 nM
same,GI50,[36],488 nM
same,TGI,[36],4580 nM
same,GI50,[37],312 nM
same,TGI,[37],1050 nM
same,GI50,[38],1350 nM
same,TGI,[38],7210 nM
same,GI50,[39],2540 nM
same,TGI,[39],6270 nM
same,GI50,[40],280 nM
same,TGI,[40],1130 nM
same,GI50,[41],1570 nM
same,TGI,[41],3650 nM
same,GI50,[42],422 nM
same,TGI,[42],1650 nM
same,GI50,[43],1200 nM
same,TGI,[43],2810 nM
same,GI50,[44],1740 nM
same,TGI,[44],5480 nM
same,GI50,[45],1030 nM
same,TGI,[45],3580 nM
same,GI50,[46],1740 nM
same,TGI,[46],4790 nM
same,GI50,[47],451 nM
same,TGI,[47],1950 nM
same,GI50,[48],401 nM
same,TGI,[48],> 100000 nM
same,GI50,[49],348 nM
same,TGI,[49],1600 nM
same,GI50,[50],245 nM
same,TGI,[50],768 nM
same,GI50,[51],2120 nM
same,TGI,[51],4280 nM
same,GI50,[52],1010 nM
same,TGI,[52],2380 nM
same,GI50,[53],1500 nM
same,TGI,[53],4040 nM
same,GI50,[54],1080 nM
same,TGI,[54],3460 nM
N#Cc1ccc(Oc2nc3ccccc3nc2C(=O)O)cc1,TGI,[55],> 100000 nM
same,TGI,[1],> 100000 nM
same,TGI,[2],> 100000 nM
same,TGI,[3],> 100000 nM
same,TGI,[4],> 100000 nM
same,TGI,[5],> 100000 nM
same,TGI,[56],> 100000 nM
same,TGI,[6],> 100000 nM
same,TGI,[7],> 100000 nM
same,TGI,[8],> 100000 nM
same,TGI,[9],> 100000 nM
same,TGI,[10],> 100000 nM
same,TGI,[11],> 100000 nM
same,TGI,[12],> 100000 nM
same,TGI,[13],> 100000 nM
same,TGI,[14],> 100000 nM
same,TGI,[15],> 100000 nM
same,TGI,[16],> 100000 nM
same,TGI,[17],> 100000 nM
same,TGI,[18],> 100000 nM
same,TGI,[19],> 100000 nM
same,TGI,[20],> 100000 nM
same,TGI,[21],> 100000 nM
same,TGI,[22],> 100000 nM
same,TGI,[23],> 100000 nM
same,TGI,[24],> 100000 nM
same,TGI,[25],> 100000 nM
same,TGI,[26],> 100000 nM
same,TGI,[27],> 100000 nM
same,TGI,[28],> 100000 nM
same,TGI,[29],> 100000 nM
same,TGI,[30],> 100000 nM
same,TGI,[31],> 100000 nM
same,TGI,[32],> 100000 nM
same,TGI,[33],> 100000 nM
same,TGI,[34],> 100000 nM
same,TGI,[35],> 100000 nM
same,TGI,[36],> 100000 nM
same,TGI,[37],> 100000 nM
same,TGI,[38],> 100000 nM
same,TGI,[39],> 100000 nM
same,TGI,[41],> 100000 nM
same,TGI,[42],> 100000 nM
same,TGI,[43],> 100000 nM
same,TGI,[44],> 100000 nM
same,TGI,[46],> 100000 nM
same,TGI,[47],> 100000 nM
same,TGI,[48],> 100000 nM
same,TGI,[49],> 100000 nM
same,TGI,[50],> 100000 nM
same,TGI,[51],> 100000 nM
same,TGI,[52],> 100000 nM
same,TGI,[53],> 100000 nM
same,TGI,[54],> 100000 nM
same,TGI,[57],> 100000 nM
CCOC(=O)c1ccc2[nH]c(O)c(C(=Nc3ccc(N(C)C(=O)CN4CCN(C)CC4)cc3)c3ccccc3)c2c1,GI50,[55],213 nM
same,TGI,[55],1780 nM
same,GI50,[1],162 nM
same,TGI,[1],1060 nM
same,GI50,[2],416 nM
same,TGI,[2],2730 nM
same,GI50,[3],356 nM
same,TGI,[3],1530 nM
same,GI50,[4],1040 nM
same,TGI,[4],2320 nM
same,GI50,[5],103 nM
same,TGI,[5],1160 nM
same,GI50,[56],416 nM
same,TGI,[56],8650 nM
same,GI50,[6],275 nM
same,TGI,[6],1470 nM
same,GI50,[7],490 nM
same,TGI,[7],2100 nM
same,GI50,[8],955 nM
same,TGI,[8],2740 nM
same,GI50,[9],655 nM
same,TGI,[9],2060 nM
same,GI50,[10],172 nM
same,TGI,[10],1260 nM
same,GI50,[11],402 nM
same,TGI,[11],1810 nM
same,GI50,[12],356 nM
same,TGI,[12],1150 nM
same,GI50,[13],428 nM
same,TGI,[13],2180 nM
same,GI50,[14],781 nM
same,TGI,[14],2780 nM
same,GI50,[15],64.4 nM
same,TGI,[15],1010 nM
same,GI50,[16],185 nM
same,TGI,[16],8870 nM
same,GI50,[17],111 nM
same,TGI,[17],1240 nM
same,GI50,[18],62.5 nM
same,TGI,[18],2040 nM
same,GI50,[19],17.2 nM
same,TGI,[19],1510 nM
same,GI50,[20],300 nM
same,TGI,[20],1410 nM
same,GI50,[21],339 nM
same,TGI,[21],1530 nM
same,GI50,[22],454 nM
same,TGI,[22],1840 nM
same,GI50,[58],418 nM
same,TGI,[58],1990 nM
same,GI50,[23],222 nM
same,TGI,[23],1540 nM
same,GI50,[24],667 nM
same,TGI,[24],2000 nM
same,GI50,[25],254 nM
same,TGI,[25],2000 nM
same,GI50,[26],596 nM
same,TGI,[26],2400 nM
same,GI50,[27],467 nM
same,TGI,[27],2230 nM
same,GI50,[28],810 nM
same,TGI,[28],2450 nM
same,GI50,[29],1120 nM
same,TGI,[29],3340 nM
same,GI50,[31],774 nM
same,TGI,[31],2300 nM
same,GI50,[33],1350 nM
same,TGI,[33],3440 nM
same,GI50,[34],514 nM
same,TGI,[34],2890 nM
same,GI50,[35],467 nM
same,TGI,[35],2370 nM
same,GI50,[36],598 nM
same,TGI,[36],3550 nM
same,GI50,[37],189 nM
same,TGI,[37],698 nM
same,GI50,[38],413 nM
same,TGI,[38],2030 nM
same,GI50,[39],894 nM
same,TGI,[39],2200 nM
same,GI50,[40],247 nM
same,TGI,[40],979 nM
same,GI50,[41],780 nM
same,TGI,[41],2570 nM
same,GI50,[42],1110 nM
same,TGI,[42],2480 nM
same,GI50,[43],426 nM
same,TGI,[43],1580 nM
same,GI50,[44],206 nM
same,TGI,[44],1230 nM
same,GI50,[45],144 nM
same,TGI,[45],1540 nM
same,GI50,[46],743 nM
same,TGI,[46],2100 nM
same,GI50,[47],178 nM
same,TGI,[47],2060 nM
same,GI50,[48],121 nM
same,TGI,[48],901 nM
same,GI50,[49],346 nM
same,TGI,[49],1620 nM
same,GI50,[50],979 nM
same,TGI,[50],3310 nM
same,GI50,[51],540 nM
same,TGI,[51],3330 nM
same,GI50,[53],1380 nM
same,TGI,[53],3170 nM
same,GI50,[54],1410 nM
same,TGI,[54],3090 nM
same,GI50,[57],323 nM
same,TGI,[57],1560 nM
